Laboratory results taken from the NIST ThermoML archive (doi:10.1021/je400679k).
± gives the expanded uncertainty stated by the source.

Tests used:
[1] = 101 kPa, Liquid, Vibrating tube method
[2] = xn = mol fraction of the nth substance listed; details: 101 kPa, Liquid, Vibrating tube method, x2 = 0

Row | Structure (SMILES) | mass density ([1]; 283.15 K) | mass density ([1]; 293.15 K) | mass density ([1]; 303.15 K) | mass density ([1]; 313.15 K) | mass density ([1]; 323.15 K) | mass density ([1]; 333.15 K) | mass density ([1]; 343.15 K) | mass density ([1]; 353.15 K) | mass density ([1]; 363.15 K) | mass density ([2]; 283.15 K) | mass density ([2]; 293.15 K) | mass density ([2]; 303.15 K) | mass density ([2]; 313.15 K) | mass density ([2]; 323.15 K) | mass density ([2]; 333.15 K) | mass density ([2]; 343.15 K) | mass density ([2]; 353.15 K) | mass density ([2]; 363.15 K)
1 | CN(C)CCO [2-(N,N-dimethylamino)ethanol] | 894.959 ± 0.11 kg/m3 | 886.56 ± 0.12 kg/m3 | 878.059 ± 0.12 kg/m3 | 869.428 ± 0.12 kg/m3 | 860.655 ± 0.12 kg/m3 | 851.72 ± 0.13 kg/m3 | 842.604 ± 0.13 kg/m3 | 833.288 ± 0.13 kg/m3 | 823.754 ± 0.14 kg/m3 |  |  |  |  |  |  |  |  | 
2 | CN(C)CCO [2-(N,N-dimethylamino)ethanol] + CNCCCN |  |  |  |  |  |  |  |  |  | 894.959 ± 0.11 kg/m3 | 886.56 ± 0.12 kg/m3 | 878.059 ± 0.12 kg/m3 | 869.428 ± 0.12 kg/m3 | 860.655 ± 0.12 kg/m3 | 851.72 ± 0.13 kg/m3 | 842.604 ± 0.13 kg/m3 | 833.288 ± 0.13 kg/m3 | 823.754 ± 0.14 kg/m3
3 | CCN(CC)CCO [(diethylamino)ethanol] | 894.423 ± 0.23 kg/m3 | 885.356 ± 0.23 kg/m3 | 876.155 ± 0.23 kg/m3 | 866.828 ± 0.23 kg/m3 | 857.388 ± 0.23 kg/m3 | 847.839 ± 0.23 kg/m3 | 838.157 ± 0.23 kg/m3 | 828.488 ± 0.23 kg/m3 | 818.597 ± 0.24 kg/m3 |  |  |  |  |  |  |  |  | 
4 | CCN(CC)CCO [(diethylamino)ethanol] + CNCCCN |  |  |  |  |  |  |  |  |  | 894.423 ± 0.23 kg/m3 | 885.356 ± 0.23 kg/m3 | 876.155 ± 0.23 kg/m3 | 866.828 ± 0.23 kg/m3 | 857.388 ± 0.23 kg/m3 | 847.839 ± 0.23 kg/m3 | 838.157 ± 0.23 kg/m3 | 828.488 ± 0.23 kg/m3 | 818.597 ± 0.24 kg/m3
5 | CNCCCN [N-methyl-1,3-diaminopropane] | 860.459 ± 0.68 kg/m3 | 851.605 ± 0.67 kg/m3 | 842.69 ± 0.67 kg/m3 | 833.715 ± 0.66 kg/m3 | 824.673 ± 0.65 kg/m3 | 815.559 ± 0.64 kg/m3 | 806.37 ± 0.63 kg/m3 | 797.093 ± 0.62 kg/m3 | 787.723 ± 0.61 kg/m3 |  |  |  |  |  |  |  |  | 
6 | CN(CCO)CCO [N-methyldiethanolamine] |  | 1040.06 ± 0.92 kg/m3 | 1032.47 ± 0.9 kg/m3 | 1024.86 ± 0.89 kg/m3 | 1017.21 ± 0.87 kg/m3 | 1009.51 ± 0.86 kg/m3 | 1001.73 ± 0.84 kg/m3 | 993.889 ± 0.83 kg/m3 | 985.958 ± 0.82 kg/m3 |  |  |  |  |  |  |  |  | 
7 | CN(CCO)CCO [N-methyldiethanolamine] + CNCCCN |  |  |  |  |  |  |  |  |  |  | 1040.06 ± 0.92 kg/m3 | 1032.47 ± 0.9 kg/m3 | 1024.86 ± 0.89 kg/m3 | 1017.21 ± 0.87 kg/m3 | 1009.51 ± 0.86 kg/m3 | 1001.73 ± 0.84 kg/m3 | 993.889 ± 0.83 kg/m3 | 985.958 ± 0.82 kg/m3
8 | O [water] | 999.701 ± 0.033 kg/m3 |  |  |  |  | 983.197 ± 0.041 kg/m3 | 977.76 ± 0.043 kg/m3 | 971.788 ± 0.046 kg/m3 | 965.305 ± 0.048 kg/m3 |  |  |  |  |  |  |  |  | 
9 | O [water] + CNCCCN |  |  |  |  |  |  |  |  |  | 999.701 ± 0.033 kg/m3 |  |  |  |  | 983.197 ± 0.041 kg/m3 | 977.76 ± 0.043 kg/m3 | 971.788 ± 0.046 kg/m3 | 965.305 ± 0.048 kg/m3
